What was measured:
[1] = system: C. difficile clnR Tn::clnRAB; assay: Growth in minimal medium with LL-37, maximum doubling time; details: mean ± SD, n ≥ 3
[2] = system: clnR expression in C. difficile 630Δerm; assay: clnR expression by qRT-PCR after exposure to antimicrobials (induction specificity); details: 2 μg/ml, BHIS; normalized to 630Δerm in BHIS without antimicrobials; mean of three replicates ± SEM

Compound: CC[C@H](C)[C@H](NC(=O)[C@H](CCCCN)NC(=O)[C@H](CCC(=O)O)NC(=O)[C@H](CCCCN)NC(=O)[C@H](CO)NC(=O)[C@H](CCCCN)NC(=O)[C@H](CCCNC(=N)N)NC(=O)[C@H](Cc1ccccc1)NC(=O)[C@H](Cc1ccccc1)NC(=O)[C@H](CC(=O)O)NC(=O)CNC(=O)[C@H](CC(C)C)NC(=O)[C@@H](N)CC(C)C)C(=O)NCC(=O)N[C@@H](CCCCN)C(=O)N[C@@H](CCC(=O)O)C(=O)N[C@@H](Cc1ccccc1)C(=O)N[C@@H](CCCCN)C(=O)N[C@@H](CCCNC(=N)N)C(=O)N[C@H](C(=O)N[C@H](C(=O)N[C@@H](CCC(N)=O)C(=O)N[C@@H](CCCNC(=N)N)C(=O)N[C@H](C(=O)N[C@@H](CCCCN)C(=O)N[C@@H](CC(=O)O)C(=O)N[C@@H](Cc1ccccc1)C(=O)N[C@@H](CC(C)C)C(=O)N[C@@H](CCCNC(=N)N)C(=O)N[C@@H](CC(N)=O)C(=O)N[C@@H](CC(C)C)C(=O)N[C@H](C(=O)N1CCC[C@H]1C(=O)N[C@@H](CCCNC(=N)N)C(=O)N[C@H](C(=O)N[C@@H](CCC(=O)O)C(=O)N[C@@H](CO)C(=O)O)[C@@H](C)O)C(C)C)[C@@H](C)CC)C(C)C)[C@@H](C)CC [LL-37]
- Doubling time ([1]; 0.5 µg/ml LL-37, MM + 30 mM NAG): 111.1 ± 16.5 min
- Doubling time ([1]; 0.5 µg/ml LL-37, MM + 30 mM ethanolamine): 93.4 ± 12.2 min
- Doubling time ([1]; 0.5 µg/ml LL-37, MM + 30 mM fructose): 80.4 ± 7.4 min
- Doubling time ([1]; 0.5 µg/ml LL-37, MM + 30 mM glucose): 76.4 ± 5.4 min
- Doubling time ([1]; 0.5 µg/ml LL-37, MM + 30 mM mannitol): 75.6 ± 5.3 min
- Doubling time ([1]; 0.5 µg/ml LL-37, MM + 30 mM mannose): 80.4 ± 8.3 min
- Doubling time ([1]; 0.5 µg/ml LL-37, base MM, § p < 0.05 vs no LL-37): 84.8 ± 4.5 min
- Relative clnR expression [2]: 530.1 ±110.5
